According to patent US8759361B2, “2-phenoxy pyrimidinone analogues” (Neurogen Corporation, priority 2006, dated 2014):

target: T1, human capsaicin receptor (Homo sapiens, UniProt Q8NER1); experiment: Calcium mobilization assay, determination of antagonist activity (Example 6); format: cell-based; conditions: cells expressing human capsaicin receptor, capsaicin-induced fluorescence response; read-out: IC50
T1 construct: expressed in transfected cells
Protocol: A cDNA encoding full length human capsaicin receptor (SEQ ID NO:1, 2 or 3 of U.S. Pat. No. 6,482,611) is subcloned in the plasmid pBK-CMV (Stratagene, La Jolla, Calif.) for recombinant expression in mammalian cells.
Human embryonic kidney (HEK293) cells are transfected with the pBK-CMV expression construct encoding the full length human capsaicin receptor using standard methods. The transfected cells are selected for two weeks in media containing G418 (400 μg/ml) to obtain a pool of stably transfected cells. Independent clones are isolated from this pool by limiting dilution to obtain clonal stable cell lines for use in subsequent experiments.
Cells transfected with expression plasmids (as described in Example 4) and thereby expressing human capsaicin receptor are seeded and grown to 70-90% confluency in FALCON black-walled, clear-bottomed 96-well plates (#3904, BECTON-DICKINSON, Franklin Lakes, N.J.). The culture medium is emptied from the 96 well plates and FLUO-3 AM calcium sensitive dye (Molecular Probes, Eugene, Oreg.) is added to each well (dye solution: 1 mg FLUO-3 AM, 440 μL DMSO and 440 μl 20% pluronic acid in DMSO, diluted 1:250 in Krebs-Ringer HEPES (KRH) buffer (25 mM HEPES, 5 mM KCl, 0.96 mM NaH2PO4, 1 mM MgSO4, 2 mM CaCl2, 5 mM glucose, 1 mM probenecid, pH 7.4), 50 μl diluted solution per well). Plates are covered with aluminum foil and incubated at 37° C. for 1-2 hours in an environment containing 5% CO2. After the incubation, the dye is emptied from the plates, and the cells are washed once with KRH buffer, and resuspended in KRH buffer.
To measure the ability of a test compound to agonize or antagonize a calcium mobilization response in cells expressing capsaicin receptors to capsaicin or other vanilloid agonist, the EC50 of the agonist capsaicin is first determined. An additional 20 μl of KRH buffer and 1 μl DMSO is added to each well of cells, prepared as described above. 100 μl capsaicin in KRH buffer is automatically transferred by the FLIPR instrument to each well. Capsaicin-induced calcium mobilization is monitored using either FLUOROSKAN ASCENT (Labsystems; Franklin, Mass.) or FLIPR (fluorometric imaging plate reader system; Molecular Devices, Sunnyvale, Calif.) instruments. Data obtained between 30 and 60 seconds after agonist application are used to generate an 8-point concentration response curve, with final capsaicin concentrations of 1 nM to 3 μM. KALEIDAGRAPH software (Synergy Software, Reading, Pa.) is used to fit the data to the equation: y=a*(1/(1+(b/x)^c)) to determine the 50% excitatory concentration (EC50) for the response. In this equation, y is the maximum fluorescence signal, x is the concentration of the agonist or antagonist (in this case, capsaicin), a is the Emax, b corresponds to the EC50 value and c is the Hill coefficient. Determination of Agonist Activity
Test compounds are dissolved in DMSO, diluted in 20 μl KRH buffer so that the final concentration of test compounds in the assay well is between 1 μM and 5 μM, and added to cells prepared as described above. The 96 well plates containing prepared cells and test compounds are incubated in the dark, at room temperature for 0.5 to 6 hours. It is important that the incubation not continue beyond 6 hours. Just prior to determining the fluorescence response, 100 μl capsaicin in KRH buffer at twice the EC50 concentration determined as described above is automatically added by the FLIPR instrument to each well of the 96 well plate for a final sample volume of 200 μl and a final capsaicin concentration equal to the EC50. The final concentration of test compounds in the assay wells is between 1 μM and 5 μM. […] The concentration of antagonist required to provide a 50% decrease, relative to the response observed in the presence of capsaicin and without antagonist, is the IC50 for the antagonist, and is preferably below 1 micromolar, 100 nanomolar, 10 nanomolar or 1 nanomolar.

T1 sequence (Q8NER1 whole entry): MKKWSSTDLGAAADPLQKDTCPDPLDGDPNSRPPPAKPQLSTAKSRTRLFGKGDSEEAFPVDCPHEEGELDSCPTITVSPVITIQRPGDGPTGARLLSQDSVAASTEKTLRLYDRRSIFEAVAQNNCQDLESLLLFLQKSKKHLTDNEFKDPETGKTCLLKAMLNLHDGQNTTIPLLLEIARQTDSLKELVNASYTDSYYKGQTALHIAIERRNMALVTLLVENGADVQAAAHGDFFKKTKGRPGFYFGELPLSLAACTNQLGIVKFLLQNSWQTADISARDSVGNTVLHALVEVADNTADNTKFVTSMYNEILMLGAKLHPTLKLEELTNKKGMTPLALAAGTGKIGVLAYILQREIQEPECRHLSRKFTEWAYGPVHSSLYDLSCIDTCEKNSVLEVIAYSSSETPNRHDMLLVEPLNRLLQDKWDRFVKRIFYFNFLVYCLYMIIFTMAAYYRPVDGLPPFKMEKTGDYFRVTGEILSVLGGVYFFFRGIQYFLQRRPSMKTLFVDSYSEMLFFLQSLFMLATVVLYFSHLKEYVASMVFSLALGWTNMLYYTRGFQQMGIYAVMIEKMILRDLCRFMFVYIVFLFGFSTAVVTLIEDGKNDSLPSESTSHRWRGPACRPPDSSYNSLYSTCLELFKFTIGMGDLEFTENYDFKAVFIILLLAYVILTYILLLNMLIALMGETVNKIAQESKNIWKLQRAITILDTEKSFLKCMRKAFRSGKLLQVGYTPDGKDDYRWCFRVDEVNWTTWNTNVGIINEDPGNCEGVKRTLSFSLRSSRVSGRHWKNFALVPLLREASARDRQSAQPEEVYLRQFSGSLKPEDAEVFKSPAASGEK

Row | Compound | IC50 [nM]
1 | O=c1c2ncsc2nc(Oc2cccc(C(F)(F)F)c2)n1-c1ccc(F)cc1 [Compound 46, 6-(4-fluorophenyl)-5-(3-(trifluoromethyl)phenoxy)thiazolo[5,4-d]pyrimidin-7(6H)-one] | ≤ 100
2 | Cn1cnc2c(=O)n(-c3ccc(F)cc3)c(Oc3cccc(C(F)(F)F)c3)nc21 [Compound 48, 1-(4-fluorophenyl)-9-methyl-2-[3-(trifluoromethyl)phenoxy]-1,9-dihydro-6H-purin-6-one] | ≤ 100
3 | Cn1cnc2c(=O)n(-c3ccc(F)cc3)c(Oc3cc(F)cc(C(F)(F)F)c3)nc21 [Compound 49, 1-(4-fluorophenyl)-2-[3-fluoro-5-(trifluoromethyl)phenoxy]-9-methyl-1,9-dihydro-6H-purin-6-one] | ≤ 100
4 | Cc1csc2c(=O)n(-c3ccc(Cl)cc3)c(Oc3ccc(F)c(F)c3F)nc12 [Compound 50, 3-(4-chlorophenyl)-7-methyl-2-(2,3,4-trifluorophenoxy)thieno[3,2-d]pyrimidin-4(3H)-one] | ≤ 100
5 | Cc1csc2c(=O)n(-c3ccc(Cl)cc3)c(Oc3ccc(Cl)cc3F)nc12 [Compound 51, 2-(4-chloro-2-fluorophenoxy)-3-(4-chlorophenyl)-7-methylthieno[3,2-d]pyrimidin-4(3H)-one] | ≤ 100
6 | Cc1csc2c(=O)n(-c3ccc(Cl)cc3)c(Oc3ccc(F)cc3F)nc12 [Compound 52, 3-(4-chlorophenyl)-2-(2,4-difluorophenoxy)-7-methylthieno[3,2-d]pyrimidin-4(3H)-one] | ≤ 100
7 | Cc1csc2c(=O)n(-c3ccc(F)cc3)c(Oc3ccc(F)c(F)c3F)nc12 [Compound 53, 3-(4-fluorophenyl)-7-methyl-2-(2,3,4-trifluorophenoxy)thieno[3,2-d]pyrimidin-4(3H)-one] | ≤ 100
8 | Cc1csc2c(=O)n(-c3ccc(F)cc3)c(Oc3ccc(Cl)cc3F)nc12 [Compound 54, 2-(4-chloro-2-fluorophenoxy)-3-(4-fluorophenyl)-7-methylthieno[3,2-d]pyrimidin-4(3H)-one] | ≤ 100
9 | Cc1csc2c(=O)n(-c3ccc(F)cc3)c(Oc3c(F)ccc(F)c3F)nc12 [Compound 55, 3-(4-fluorophenyl)-7-methyl-2-(2,3,6-trifluorophenoxy)thieno[3,2-d]pyrimidin-4(3H)-one] | ≤ 100
10 | Cc1cccc(Oc2nc3c(ncn3C)c(=O)n2-c2ccc(F)cc2)c1C [Compound 63, 2-(2,3-dimethylphenoxy)-1-(4-fluorophenyl)-9-methyl-1,9-dihydro-6H-purin-6-one] | ≤ 100

target: VR (Homo sapiens, UniProt Q8NER1); experiment: not given; conditions: binds to VR with no more than moderate affinity; cited from earlier work
Sequence (Q8NER1 whole entry): as above

Row | Compound | Ki [nM]
11 | Cl.Cl.Cl.Cl.Cl.Cl.N.N.N.N.N.N.N.N.N.N.N.N.N.N.[O-2].[O-2].[Ru+3].[Ru+3].[Ru+4] [ruthenium red] | ≥ 140000
